Results published in BigSolDB 2.1.

Cc1ccc(-c2ccccc2C#N)cc1
solubility (mole fraction)
Conditions	268.05 K	272.97 K	278.05 K	283.15 K	288.15 K	293.15 K	298.13 K	303.05 K
in ethanol	0.0142	0.0159	0.0168	0.0205	0.0284	0.041	0.0604	0.0958
in ethyl acetate	0.163	0.196	0.237	0.284	0.341	0.412	0.482	0.569
